Several values for one entry are separate records, joined by “and”; a condition that tells them apart may be missing. Equal entries are not always repeated. Where two headings read alike, the source gives them in different places. Blank lines part the entries; values can stand above or below the compound they belong to.
Tests used:
[1] = tested on: A549 cells; assay: MTT assay for cytotoxicity, A549 cells; format: cell-based, human; details: for anti-NSCLC activity (cytotoxicity): A549 cells, 100 µM; for IC50: Homo sapiens, A549, MTT, 72 h
Procedure: (§1) Dulbecco’s modified Eagle’s medium (DMEM) (Wako Pure Chemical Industries, Osaka, Japan) containing 10% fetal bovine serum (FBS) (Equitech-Bio, Kerrville, TX, USA) was used for the culture of A549 and MCF-7 human cancer cells, while RPMI 1640 (Wako Pure Chemical Industries) containing 10% FBS was used for the culture of Jurkat cells, derived from human leukemia. On the other hand, PBMCs (Precision Bioservices, Frederick, MD, USA) were incubated in RPMI 1640 supplemented with 10% human serum AB (HS) (Gemini, Woodland, CA, USA). All media also incorporated 89 μg/mL of streptomycin (Meiji Seika Pharma, Tokyo, Japan), and cells were maintained at 37 °C in a 95% air and 5% CO2 humidified chamber. The microtiter tissue culture plates (24-well and 96-well) (Iwaki, Asahi Glass Co., Chiba, Japan) were used for cancer cells (4 × 10^4 cells/mL) and PBMCs (5 × 10^5 cells/mL), respectively. Prior to drug treatment, all of these cells were incubated for 72 h. The optimal cell density for cytotoxicity testing was established in preliminary experiments. […] The final concentration of DMSO in the culture medium was adjusted to 1% [61, 62, 63].
(§2) The cellular reduction in MTT (Dojindo Molecular Technologies, Kumamoto, Japan) was measured as described in the literature with minor modifications. […] MTT was then added at a final concentration 0.275 mg/mL and incubated for a further 4 h at 37 °C. The medium was removed and 100 μL DMSO was added to each well to dissolve the formazan crystals. The dissolved crystals were diluted (1:10) with DMSO, and 100 μL of the solution was transferred to a 96-well microtiter plate (Iwaki, Asahi Glass Co.). Absorbance was measured at 570 nm using an Infinitive M1000 microplate spectrophotometer (Tecan, Groding, Austria). Each concentration was tested in triplicate, and the IC50 values were determined as the drug concentrations that reduced absorbance to 50% of the control values.

[2] = tested on: PBMCs; assay: MTT assay for cytotoxicity, PBMCs (healthy); format: cell-based; details: PBMC, 72 h, healthy cells
Procedure: as §1
The cellular reduction in MTT (Dojindo Molecular Technologies, Kumamoto, Japan) was measured as described in the literature with minor modifications. […] Absorbance was measured at 570 nm using an Infinitive M1000 microplate spectrophotometer (Tecan, Groding, Austria). […]

[3] = tested on: Jurkat cells; assay: MTT assay for cytotoxicity, Jurkat cells; format: cell-based, human; details: for IC50: Homo sapiens, Jurkat, MTT, 72 h
Procedure: as §1, §2

[4] = target: T1, EGFR kinase (Homo sapiens, UniProt P00533); assay: EGFR inhibition assay (EGFR Kinase Enzyme System, ADP-Glo); format: biochemical
T1 construct: EGFR kinase (human, recombinant; amino acids 695–end); purchased Promega Corporation V3831
Procedure: The kinase profiling assay protocol (EGFR Kinase Enzyme System, V3831) was performed following the manufacturer’s instructions (Promega Corporation, Madison, WI, USA) with minor modifications. As per the protocol, 95 μL of 2.5× kinase buffer and 15 μL of 100 μM ATP solution were used for the dilution of the EGFR kinase (human, recombinant; amino acids 695–end) and its substrate (4:1 Glu, Tyr). Kinase reactions were performed in a 384-well plate in the presence of 2 μL of kinase working stock, 2 μL of ATP/substrate working stock, and 1 μL of the test compound solution ([…]) or 5% DMSO solution. After incubating for 2 h at r.t., kinase activity was assessed using the ADP-Glo Kinase Assay (Promega Corporation, Madison, WI, USA) following the manufacturer’s instructions. Specifically, 5 μL of ADP-Glo Reagent was added to each well and incubated for 40 min, followed by the addition of 10 μL of Kinase Detection Reagent and further incubation for 30 min at room temperature. Luminescence was measured using the Infinite M1000 microplate reader (Tecan, Grödig, Austria) with an integration time of 0.5–1 s to evaluate the kinase inhibitory effects of the compounds in a dose-dependent manner.

[5] = tested on: A549 cells; assay: Annexin V/ethidium homodimer III staining for apoptosis, A549 cells; format: cell-based, human; details: IC50 concentration, 24 h
Procedure: (§3) Compound B-4 at an IC50 concentration was administered to A549 and MCF-7 cells for 24 h. After detachment from the plate with 0.05% trypsin and washing twice with 1× binding buffer, the cells were incubated for 20 min at r.t. in the dark with a staining solution bearing 50 μL 1× binding buffer, 4 μL FTIC annexin V solution, 4 μL ethidium homodimer III solution, and 4 μL Hoechst 33342 solution. The cells were washed with 1× binding buffer, fixed with 2% paraformaldehyde, washed with PBS, and analyzed by a Biorevo Fluorescence BZ-9000 (Keyence, Osaka, Japan) integrated fluorescence microscope.

[6] = tested on: MCF-7 cells; assay: MTT assay for cytotoxicity, MCF-7 cells; format: cell-based, human; details: for IC50: Homo sapiens, MCF7, MTT, 72 h; for anti-breast cancer activity (cytotoxicity): MCF-7 cells, 100 µM
Procedure: as §1, §2

[7] = tested on: MCF-7 cells; assay: Annexin V/ethidium homodimer III staining for apoptosis, MCF-7 cells; format: cell-based, human; details: IC50 concentration, 24 h
Procedure: as §3

[8] = tested on: EGFR; details: cited from earlier work; for IC50: read-out: EGFR inhibition IC50
[9] = tested on: A549 cells; details: cited from earlier work
[10] = tested on: MCF-7 cells; details: cited from earlier work
[11] = thiazolyl–pyrazolines, read-out: IC50 A549 cells
[12] = quinoline/chalcone hybrids with 1,2,4-triazole
[13] = triazoloquinoxaline–chalcone derivatives

T1 sequence (P00533 695-1210 limits assumed): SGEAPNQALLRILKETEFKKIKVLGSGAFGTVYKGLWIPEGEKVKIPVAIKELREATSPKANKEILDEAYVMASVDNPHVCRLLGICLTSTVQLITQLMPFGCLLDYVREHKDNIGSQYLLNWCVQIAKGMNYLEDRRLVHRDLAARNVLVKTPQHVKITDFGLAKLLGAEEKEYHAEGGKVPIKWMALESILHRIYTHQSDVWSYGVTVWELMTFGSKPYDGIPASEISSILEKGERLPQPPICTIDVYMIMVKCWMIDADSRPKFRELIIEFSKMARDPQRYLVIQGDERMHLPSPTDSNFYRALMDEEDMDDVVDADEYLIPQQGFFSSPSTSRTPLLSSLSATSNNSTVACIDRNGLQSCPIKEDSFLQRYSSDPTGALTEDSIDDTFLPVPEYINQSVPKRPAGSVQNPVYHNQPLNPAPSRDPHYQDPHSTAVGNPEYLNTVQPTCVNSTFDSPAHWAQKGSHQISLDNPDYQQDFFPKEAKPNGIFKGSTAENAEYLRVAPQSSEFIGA

EGFR inhibition ([4]; 1 μM): weak inhibition
inhibition at 10 µM ([4]; 10 μM): 46%
SMILES: COc1ccc(C(=O)/C=C/c2cnc(-c3ccc(Cl)cc3)nc2)cc1OC [B-4, (E)-3-(2-(4-chlorophenyl)pyrimidin-5-yl)-1-(3,4-dimethoxyphenyl)prop-2-en-1-one]
anti-NSCLC activity (cytotoxicity) [1]: 70%
IC50 [1]: 20.5 ± 2.71 µM
IC50 [2]: 68.9 ± 10.3 µM
IC50 [3]: 1.5 ± 0.4 µM
SI (Selectivity Index) ([3]; IC50 for PBMC/IC50 for Jurkat cell line): 45.93
cells that underwent apoptosis [5]: 11.9%
IC50 [6]: 6.7 ± 1.02 µM
anti-breast cancer activity (cytotoxicity) [6]: 70%
cells that underwent apoptosis [7]: 10.2%

SMILES: COc1ccc(C2=NN(C(N)=S)C(c3cnc(-c4ccc(Cl)cc4)nc3)C2)cc1OC (centres unmarked) [B-9, 5-(2-(4-chlorophenyl)pyrimidin-5-yl)-3-(3,4-dimethoxyphenyl)-4,5-dihydro-1H-pyrazole-1-carbothioamide]
anti-NSCLC activity (cytotoxicity) [1]: 43%
anti-breast cancer activity (cytotoxicity) [6]: 33%

SMILES: COc1ccc(C2=NN(c3nc(-c4ccc(Cl)cc4)cs3)C(c3cnc(-c4ccc(Cl)cc4)nc3)C2)cc1OC (centres unmarked) [BH-4, 2-(5-(2-(4-Chlorophenyl)pyrimidin-5-yl)-3-(3,4-dimethoxyphenyl)-4,5-dihydro-1H-pyrazol-1-yl)-4-(4-(chloro)phenyl)thiazole]
anti-breast cancer activity (cytotoxicity) [6]: 38%

SMILES: COc1ccc(C2=NN(c3nc(-c4ccc(Br)cc4)cs3)C(c3cnc(-c4ccc(Cl)cc4)nc3)C2)cc1OC (centres unmarked) [BH-5, 2-(5-(2-(4-Chlorophenyl)pyrimidin-5-yl)-3-(3,4-dimethoxyphenyl)-4,5-dihydro-1H-pyrazol-1-yl)-4-(4-(bromo)phenyl)thiazole]
anti-NSCLC activity (cytotoxicity) [1]: 37%
anti-breast cancer activity (cytotoxicity) [6]: 39%

SMILES: Clc1ccc(C2CC(c3ccc4ccccc4c3)=NN2c2nc(-c3ccc(Br)cc3)cs2)cc1 (centres unmarked) [BTT-5]
EGFR inhibition ([8]; 10 µM concentration, 10 µM): 58% and 58.32%
IC50 ([9]; naphthalene-linked pyrazoline–thiazole hybrids, read-out: anti-NSCLC IC50 (A549 cells)): 9.51 µM

SMILES: N#Cc1ccc(-c2csc(N3N=C(c4ccc(N5CCOCC5)cc4)CC3c3ccc(Cl)cc3)n2)cc1 (centres unmarked) [Compound 3f]
IC50 ([8]; thiazolyl–pyrazolines): 4.34 µM
IC50 ([10]; thiazolyl–pyrazolines): 8.05 µM
IC50 [9, 11]: 10.8 µM

SMILES: COc1ccc2nc(Cl)c(C3CC(c4ccc(C)cc4)=NN3c3nc(-c4ccc(F)cc4)cs3)cc2c1 (centres unmarked) [Compound 6c]
IC50 ([8]; thiazolyl–pyrazolines): 0.0318 µM
IC50 ([10]; thiazolyl–pyrazolines): 0.227 µM

SMILES: COc1ccc(C2CC(c3ccc(OC)c(OC)c3)=NN2c2nc(-c3ccccc3)cs2)cc1 (centres unmarked) [Compound 6e]
IC50 ([8]; thiazolyl–pyrazolines): 0.009 µM
IC50 ([10]; thiazolyl–pyrazolines): 7.21 µM

SMILES: C=CCn1c(SCC(=O)Nc2ccc(C(=O)/C=C/c3ccc(Cl)cc3)cc2)nnc1-c1cc(-c2ccccc2)nc2ccccc12 [Compound 7b]
IC50 [8, 12]: 1.3 ± 1.2 µM
IC50 [10, 12]: 3.3 ± 0.08 µM
IC50 ([9]; quinoline/chalcone hybrids with 1,2,4-triazole, read-out: IC50 A549 cells): 3.6 ± 0.05 µM

SMILES: CCc1nnc2c(Nc3ccc(C(=O)/C=C/c4ccc(OC)cc4)cc3)nc3ccccc3n12 [Compound 7e]
IC50 [8, 13]: 0.083 ± 0.04 µM
IC50 [10, 13]: 8.23 ± 0.25 µM

SMILES: CCOC(=O)c1sc(N2N=C(c3ccc(Cl)cc3Cl)CC2c2ccc(OC)cc2)nc1C (centres unmarked) [Compound 10b]
IC50 ([8]; thiazolyl–pyrazolines): 0.0407 µM
IC50 [9, 11]: 4.22 µM

SMILES: COc1ccc(C2CC(c3ccc(Cl)cc3Cl)=NN2c2nc(C)c(C(=O)Nc3ccccc3)s2)cc1OC (centres unmarked) [Compound 10d]
IC50 ([8]; thiazolyl–pyrazolines): 0.0325 µM
IC50 [9, 11]: 2.92 µM

SMILES: CS(=O)(=O)CCNCc1ccc(-c2ccc3ncnc(Nc4ccc(OCc5cccc(F)c5)c(Cl)c4)c3c2)o1 [Lapatinib]
IC50 [1]: 18.2 ± 3.25 µM
IC50 [2]: 12.7 ± 2.08 µM
IC50 [3]: 1.43 ± 0.35 µM
IC50 [6]: 9.71 ± 1.12 µM

— paper PMC11859636, “Design, Synthesis, and Mechanistic Anticancer Evaluation of New Pyrimidine-Tethered Compounds” (Pharmaceuticals, 2025)
